# Measured values as given in US20160166576A1, “SUBSTITUTED AMIDOPYRAZOLE INHIBITORS OF INTERLEUKIN RECEPTOR-ASSOCIATED KINASES (IRAK-4)” (MERCK SHARP & DOHME CORP., priority 2013, published 2016).
# Where two headings read alike, the source gives them in different places.
# Legend:
# IRAK4 = target: T1, IRAK4 (Homo sapiens, UniProt Q9NWZ3); assay: IRAK4 IMAP kinase activity assay (fluorescence polarization); format: biochemical; details: 1 nM GST tagged IRAK4, 100 μM ATP, 1 hour at 25° C.
# T1 construct: GST; purchased SignalChem
# T1 sequence (Q9NWZ3 1-460): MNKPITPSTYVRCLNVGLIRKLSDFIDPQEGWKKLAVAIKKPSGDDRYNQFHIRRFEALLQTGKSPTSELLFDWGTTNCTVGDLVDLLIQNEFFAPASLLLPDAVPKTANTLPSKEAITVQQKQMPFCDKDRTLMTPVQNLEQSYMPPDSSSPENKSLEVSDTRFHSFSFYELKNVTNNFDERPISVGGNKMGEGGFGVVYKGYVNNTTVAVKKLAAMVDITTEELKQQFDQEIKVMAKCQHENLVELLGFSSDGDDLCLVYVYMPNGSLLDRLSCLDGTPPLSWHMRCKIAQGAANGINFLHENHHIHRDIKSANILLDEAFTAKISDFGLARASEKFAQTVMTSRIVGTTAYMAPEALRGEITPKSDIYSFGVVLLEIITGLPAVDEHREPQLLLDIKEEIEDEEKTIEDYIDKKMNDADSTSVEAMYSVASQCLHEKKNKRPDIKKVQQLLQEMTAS
# Description: Determination of IRAK4 Kinase Activity
# The kinase activity of IRAK4 is determined by its ability to catalyze the phosphorylation of a fluorescent polypeptide substrate. The extent of phosphorylation is measured using IMAP technology (Molecular Devices) where the phosphorylated fluorescent substrate binds to the large M(III)-based nanoparticles which reduces the rotational speed of the substrate and thus increases its fluorescent polarization (FP).
# Procedure: A 20 μl reaction mixture contains 10 mM TriHC1, pH 7.2, 1 nM GST tagged IRAK4 (SignalChem), 100 nM fluorescent peptide substrate (RP7030, Molecular Devices), 100 μM ATP, 1 mM DTT, 2 mM MgCl2, and 0.01% Tween 20. The reaction is initiated by the addition of ATP. After incubation for 1 hour at 25° C., 60 μl of Progressive IMAP Reagent (Molecular Devices) is added to stop the reaction. Change in RP7030's FP is determined by a FP reader (EnVision Multilabel Reader, Perkin Elmer).
# [1] = Rat pharmacokinetics after PO and SC dosing; format: in vivo, female Lewis rats; details: for Cmax: rat, fed female Lewis rats, plasma; for Cmax compared to that of Compound A: rats, at either 30 mpk SC dosing or 30 mpk PO dosing or both
# Description: Pharmacokinetic Properties
# Pharmacokinetic parameters were determined following PO and SC dosing at 30 mg/kg in fed female Lewis rats. Compounds were formulated for both PO and SC dosing in 50/50 (v/v) 50% captisol/50 mM citrate buffer (pH 4). Plasma samples obtained from dosed animals were prepared for analysis by means of a single step protein precipitation technique by adding 200 μL of acetonitrile to 50 μL aliquots of individual subject samples. Samples were mixed by vortex for homogeneity and then subjected to centrifugation at 3500 rpm for 10 min. The supernatant (200 μL) was collected and injected into the LC-MS/MS for analysis. Pharmacokinetic parameters were calculated using established non-compartmental methods.
# [2] = 30 mg/kg PO, read-out: Rat PK, 30 mpk PO, Cmax
# [3] = 30 mg/kg SC, read-out: Rat PK, 30 mpk SC, Cmax
IC50 (IRAK4) [nM],"Cmax [1, 2] [µM]","Cmax [1, 3] [µM]",Cmax compared to that of Compound A [1],SMILES
1,8.6,1.5,superior,"Cc1ccc(-n2nc(N3CCN([C@@H]4CCS(=O)(=O)C4)CC3)cc2NC(=O)c2cnn3cccnc23)nc1 [Compound 8, N-[3-{4-[(3R)-1,1-dioxidotetrahydrothiophen-3-yl]piperazin-1-yl}-1-(5-methylpyridin-2-yl)-1H-pyrazol-5-yl]pyrazolo[1,5-a]pyrimidine-3-carboxamide]"
2,1,3.3,,"Cc1ccc(-n2nc(N3CCN(C)CC3)cc2NC(=O)c2cnn3ccccc23)nc1 [Compound A, reference compound]"
2,7.7,8.1,superior,"Cc1ccc(-n2nc(N3CCN([C@H]4CCS(=O)(=O)C4)CC3)cc2NC(=O)c2cnn3cccnc23)nc1 [Compound 9, N-[3-{4-[(3S)-1,1-dioxidotetrahydrothiophen-3-yl]piperazin-1-yl}-1-(5-methylpyridin-2-yl)-1H-pyrazol-5-yl]pyrazolo[1,5-a]pyrimidine-3-carboxamide]"
4,4.3,16.1,superior,"Cc1ccc(-n2nc(N3CCN(CC(N)=O)CC3)cc2NC(=O)c2cnn3cccnc23)nc1 [Compound 16, N-{3-[4-(2-amino-2-oxoethyl)piperazin-1-yl]-1-(5-methylpyridin-2-yl)-1H-pyrazol-5-yl}pyrazolo[1,5-a]pyrimidine-3-carboxamide]"
